Test results as given in US9758494B2, “N-(oxazol-2-yl)-aryl-carboxylic acid amides and use thereof as herbicides” (BAYER CROPSCIENCE AG, priority 2012, dated 2017).

What was measured:
Format in all cases: in vivo
[1] = system: Brassica napus (Oilseed Rape); assay: Post-emergence, damage of crop plants
Description: (§1) Seeds of monocotyledonous and dicotyledonous weed plants and crop plants are laid out in wood fiber pots in sandy loam, covered with soil and cultivated in a greenhouse under good growth conditions. 2 to 3 weeks after sowing, the test plants are treated at the one-leaf stage. The compounds according to the invention, formulated in the form of wettable powders (WP) or as emulsion concentrates (EC), are then sprayed onto the green parts of the plants in the form of an aqueous suspension or emulsion at a water application rate equating to 600 to 800 l/ha, with addition of 0.2% wetting agent. After the test plants have been left to stand in the greenhouse under optimal growth conditions for about 3 weeks, the action of the preparations is assessed visually in comparison to untreated controls (herbicidal action in percent (%): 100% activity=the plants have died, 0% activity=like control plants). Here, for example, compounds No. 1-163, 1-171, 1-172, 1-173, 1-254, 1-283, 1-284, 1-293, 1-294 and 1-334, at an application rate of 80 g/ha, have an activity of at least 80% against Abutilon theophrasti and Amaranthus retroflexus.
(§2) In the tables below, the properties of the compounds according to the invention are compared to those of the structurally most similar compounds known from WO 2012/028579 A1. These tests were carried out by the pre- and post-emergence method under the conditions mentioned under item 1 and item 2. Here, the herbicidal activity against various harmful plants and the damage of some important crop plants were compared at different dosages.

Avena fatua [2] = assay: Pre-emergence herbicidal action
Source text: (§3) Seeds of monocotyledonous and dicotyledonous weed plants and crop plants are laid out in wood-fiber pots in sandy loam and covered with soil. The compounds according to the invention, formulated in the form of wettable powders (WP) or as emulsion concentrates (EC), are then applied to the surface of the soil cover in the form of an aqueous suspension or emulsion at a water application rate equating to 600 to 800 l/ha, with addition of 0.2% wetting agent. After the treatment, the pots are placed in a greenhouse and kept under good growth conditions for the test plants. The damage to the test plants is assessed visually after a test period of 3 weeks by comparison with untreated controls (herbicidal activity in percent (%): 100% activity=the plants have died, 0% activity=like control plants). Here, for example, compounds No. 1-163, 1-171, 1-172, 1-283, 1-284, 1-294, 1-295, 1-334, 10-001 and 11-343, at an application rate of 320 g/ha, have an activity of at least 80% against Veronica persica.
as §2

Lolium multiflorum [3] = assay: Post-emergence herbicidal action
Description: as §1, §2

Cyperus serotinus = assay: Post-emergence herbicidal action; conditions: Dosage 80/ha (Table Q)
Description: as §1, §2

Oryza sativa (Rice) [4] = assay: Post-emergence, damage of crop plants
Description: as §1, §2

Lolium multiflorum [5] = assay: Pre-emergence herbicidal action
Source text: as §3, §2

Polygonum convolvulus = assay: Pre-emergence herbicidal action
Source text: as §3, §2

[6] = system: Brassica napus (Oilseed Rape); assay: Pre-emergence, damage of crop plants
Source text: as §3, §2

Oryza sativa (Rice) [7] = assay: Pre-emergence, damage of crop plants
Source text: as §3, §2

Zea mays (Corn) [8] = assay: Pre-emergence, damage of crop plants; conditions: Dosage 320/ha (Table G)
Source text: as §3, §2

Pharbitis purpureum = assay: Post-emergence herbicidal action; conditions: Dosage 20/ha (Table S)
Description: as §1, §2

[9] = system: Triticum aestivum (Wheat); assay: Post-emergence, damage of crop plants
Description: as §1, §2

Zea mays (Corn) [10] = assay: Post-emergence, damage of crop plants
Description: as §1, §2

[11] = system: Triticum aestivum (Wheat); assay: Pre-emergence, damage of crop plants
Source text: as §3, §2

Setaria viridis = assay: Post-emergence herbicidal action
Description: as §1, §2

Alopecurus myosuroides [12] = assay: Post-emergence herbicidal action; conditions: Dosage 80/ha (Table P)
Description: as §1, §2

Avena fatua [13] = assay: Post-emergence herbicidal action; conditions: Dosage 80/ha (Table P)
Description: as §1, §2

Alopecurus myosuroides [14] = assay: Pre-emergence herbicidal action; conditions: Dosage 320/ha (Table D)
Source text: as §3, §2

Stellaria media = assay: Post-emergence herbicidal action; conditions: Dosage 5/ha (Table T)
Description: as §1, §2

Veronica persica = assay: Post-emergence herbicidal action; conditions: Dosage 5/ha (Table T)
Description: as §1, §2

Echinochloa crus galli = assay: Pre-emergence herbicidal action; conditions: Dosage 80/ha (Table H)
Source text: as §3, §2

Matricaria inodora = assay: Pre-emergence herbicidal action; conditions: Dosage 80/ha (Table H)
Source text: as §3, §2

Q: Which “Damage of BRSNW” value ([1]; 5 g/ha (Table W)) does the source give for CCS(=O)(=O)c1ccc(C(=O)Nc2nnnn2C)c(Cl)c1C1=NOC(CC#N)C1 (stereo not shown) [WO 2012/028579, No. 4-268] here?
A: The value was 80%.

Q: What about the “Damage of BRSNW” value ([1]; 20 g/ha (Table W)) of the same compound?
A: The value was 100%.

Q: And the “Herbicidal activity against AVEFA” value (Avena fatua [2]; 20 g/ha (Table K))?
A: Its value is 0%.

Q: And the “Herbicidal activity against AVEFA” value (Avena fatua [2]; 80 g/ha (Table K))?
A: Its value is 0%.

Q: For Cn1nnnc1NC(=O)c1ccc(S(C)(=O)=O)c([S+](C)[O-])c1Cl (stereo not shown) [WO 2012/028579, No. 4-293], which “herbicidal activity, Harmful plants LOLMU” value (Lolium multiflorum [3]; Dosage 80/ha (Table Q)) is on record?
A: The value was 40%.

Q: And the “herbicidal activity, Harmful plants CYPES” value (Cyperus serotinus)?
A: Its value is 40%.

Q: What about the “damage of crop plants, Crop plant ORYZA” value (Oryza sativa (Rice) [4]; Dosage 80/ha (Table Q)) of the same compound?
A: The value was 40%.

Q: And the “herbicidal activity against harmful plants LOLMU” value (Lolium multiflorum [5]; Dosage 320/ha (Table F))?
A: The value was 20%.

Q: And the “herbicidal activity against harmful plants POLCO” value (Polygonum convolvulus; Dosage 320/ha (Table F))?
A: The value was 20%.

Q: For Cn1nnnc1NC(=O)c1ccc(C(F)(F)F)c([S+](C)[O-])c1Cl (stereo not shown) [WO 2012/028579, No. 4-639], which “damage of crop plants BRSNW” value ([6]; Dosage 320/ha (Table G)) is on record?
A: The value was 90%.

Q: And the “damage of crop plants ORYZA” value (Oryza sativa (Rice) [7]; Dosage 320/ha (Table G))?
A: Its value is 90%.

Q: And the “damage of crop plants ZEAMX” value (Zea mays (Corn) [8])?
A: The value was 40%.

Q: And the “herbicidal activity, Harmful plant PHBPU” value (Pharbitis purpureum)?
A: Its value is 40%.

Q: What about the “damage of crop plants, Crop plants TRZAS” value ([9]; Dosage 20/ha (Table S)) of the same compound?
A: The value was 100%.

Q: And the “damage of crop plants, Crop plants ORYZA” value (Oryza sativa (Rice) [4]; Dosage 20/ha (Table S))?
A: Its value is 60%.

Q: What about the “damage of crop plants, Crop plants ZEAMX” value (Zea mays (Corn) [10]; Dosage 20/ha (Table S)) of the same compound?
A: The value was 80%.

Q: Which “damage of crop plants TRZAS” value ([11]; Dosage 80/ha (Table B)) does the source give for CCn1nnnc1NC(=O)c1ccc(C(F)(F)F)c(SC)c1C [WO 2012/028579, No. 5-146] here?
A: Its value is 30%.

Q: And the “damage of crop plants BRSNW” value ([6]; Dosage 80/ha (Table B))?
A: The value was 90%.

Q: What about the “damage of crop plants ORYZA” value (Oryza sativa (Rice) [7]; Dosage 80/ha (Table B)) of the same compound?
A: The value was 90%.

Q: And the “damage of crop plants TRZAS” value ([9]; Dosage 80/ha (Table N))?
A: Its value is 60%.

Q: And the “damage of crop plants BRSNW” value ([1]; Dosage 80/ha (Table N))?
A: The value was 100%.

Q: And the “damage of crop plants ORYZA” value (Oryza sativa (Rice) [4]; Dosage 80/ha (Table N))?
A: The value was 80%.

Q: How did the “herbicidal activity against harmful plants LOLMU” value (Lolium multiflorum [3]; Dosage 20/ha (Table R)) turn out when CCn1nnnc1NC(=O)c1ccc(S(C)(=O)=O)c([S+](C)[O-])c1Cl (stereo not shown) [WO 2012/028579, No. 5-294] was run?
A: The value was 10%.

Q: And the “herbicidal activity against harmful plants SETVI” value (Setaria viridis; Dosage 20/ha (Table R))?
A: Its value is 0%.

Q: Cc1c(C(=O)Nc2nnnn2-c2ccccc2)ccc(S(C)(=O)=O)c1S(C)(=O)=O [WO 2012/028579, No. 6-189] was tested. Which “damage of crop plants, Crop plant TRZAS” value ([11]; Dosage 320/ha (Table E)) did it give?
A: The value was 30%.

Q: And the “damage of crop plants, Crop plant BRSNW” value ([6]; Dosage 320/ha (Table D))?
A: Its value is 90%.

Q: What about the “damage of crop plants, Crop plant ORYZA” value (Oryza sativa (Rice) [7]; Dosage 320/ha (Table E)) of the same compound?
A: Its value is 80%.

Q: What about the “herbicidal activity against harmful plants ALOMY” value (Alopecurus myosuroides [12]) of the same compound?
A: The value was 0%.

Q: And the “herbicidal activity against harmful plants LOMU” value (Lolium multiflorum [3]; Dosage 80/ha (Table P))?
A: The value was 0%.

Q: And the “herbicidal activity against harmful plants AVEFA” value (Avena fatua [13])?
A: Its value is 0%.

Q: And the “herbicidal activity against harmful plants SETVI” value (Setaria viridis; Dosage 80/ha (Table P))?
A: Its value is 20%.

Q: And the “herbicidal activity, Harmful plant ALOMY” value (Alopecurus myosuroides [14])?
A: Its value is 0%.

Q: And the “herbicidal activity, Harmful plant LOLMU” value (Lolium multiflorum [5]; Dosage 320/ha (Table E))?
A: Its value is 70%.

Q: What about the “herbicidal activity, Harmful plant POLCO” value (Polygonum convolvulus; Dosage 320/ha (Table E)) of the same compound?
A: The value was 0%.

Q: Which results are given for CCS(=O)(=O)c1ccc(C(=O)Nc2nnnn2-c2ccccc2)c(Cl)c1C1=NOC(CC#N)C1 (stereo not shown) [WO 2012/028579, No. 6-268]?
A: Damage of BRSNW ([1]; 20 g/ha (Table X)): 20%; Damage of BRSNW ([1]; 80 g/ha (Table X)): 60%; Herbicidal activity against AVEFA (Avena fatua [2]; 20 g/ha (Table L)): 0%; Herbicidal activity against AVEFA (Avena fatua [2]; 80 g/ha (Table L)): 0%

Q: Which results are given for Cn1ncnc1NC(=O)c1ccc(C(F)(F)F)nc1Cl [WO 2012/028579, No. 8-9]?
A: herbicidal activity against harmful plants STEME (Stellaria media): 10%; herbicidal activity against harmful plants VERPE (Veronica persica): 60%; herbicidal activity against harmful plants ECGCG (Echinochloa crus galli): 0%; herbicidal activity against harmful plants MATIN (Matricaria inodora): 60%

Q: What does the source list for Cn1nnnc1NC(=O)c1ccc(C(F)(F)F)nc1Cl [WO 2012/028579, No. 8-10]?
A: Damage of ORYZA (Oryza sativa (Rice) [7]; 20 g/ha (Table I)): 50%; Damage of ORYZA (Oryza sativa (Rice) [7]; 80 g/ha (Table I)): 90%; damage of crop plants ORYZA (Oryza sativa (Rice) [4]; Dosage 80 g/ha (Table U)): 90%; damage of crop plants ZEAMX (Zea mays (Corn) [10]; Dosage 80 g/ha (Table U)): 90%
